Test results taken from article PMC12775434, “Ultra-large virtual screening unveils potent agonists of the neuromodulatory orphan receptor GPR139” (Nature Communications, 2025).
Several values for one entry are separate records, joined by “and”; a condition that tells them apart may be missing. Equal values may be shown once.

Assays:
GPR139 (Gi3 activation) = target: T1, GPR139 (Gi3 activation) (Homo sapiens, UniProt Q6DWJ6); experiment: BRET G protein activation (dissociation) assay, Gi3, HEK293A; format: cell-based; details: for Emax: HEK293-A, normalized to JNJ-63533054 (JNJ(S)); for EC50: Supplementary Table 6, read-out: pEC50 Gi3 (converted); for G protein activation, Gi3: individual replicates
T1 construct: expressed in transfected cells; host or cells: HEK293A (transient, Lipofectamine 2000)
T1 sequence (Q6DWJ6 1-353): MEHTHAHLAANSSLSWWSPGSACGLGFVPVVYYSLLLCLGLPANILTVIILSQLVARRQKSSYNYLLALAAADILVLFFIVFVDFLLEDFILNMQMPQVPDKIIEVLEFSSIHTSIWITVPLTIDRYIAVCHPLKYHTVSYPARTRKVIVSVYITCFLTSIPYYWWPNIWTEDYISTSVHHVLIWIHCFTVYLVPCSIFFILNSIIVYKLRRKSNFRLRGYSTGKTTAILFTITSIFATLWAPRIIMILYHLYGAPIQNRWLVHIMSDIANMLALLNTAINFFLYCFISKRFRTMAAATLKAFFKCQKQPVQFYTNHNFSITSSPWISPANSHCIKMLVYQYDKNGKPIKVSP
Procedure: (§1) Primary screening and pharmacological characterization of compounds were performed using a CHO-K1 cell line that stably expresses human GPR139 (GPR139-CHOk1). The GPR139-CHOk1 cell line was kindly provided by H. Lundbeck A/S, Denmark[24]. GPR139-CHOk1 cells were grown in Ham’s F-12 Kaighn’s Modification Medium (ThermoFisher #21127030) supplemented with 10% dialyzed fetal bovine serum (US origin, ThermoFisher #26400044), 100 units/mL Penicillin-Streptomycin (ThermoFisher #15140122), and 1 mg/mL Geneticin (ThermoFisher #11811031). […] M1R-CHOk1 cells were purchased from The Missouri S&T cDNA Resource Center (#CEM100TN00). M1R-CHOk1 cells were grown in Ham’s F12 Medium (ThermoFisher #21765029) supplemented with 10% fetal bovine serum (Brazilian origin, ThermoFisher #10270106), 100 units/mL Penicillin-Streptomycin, and 0.25 mg/mL Geneticin. HEK293A cells transiently transfected with GPR139 were used for additional pharmacological assessment of signaling pathways activated by GPR139. HEK239A cells were generously provided by Dr. Asuka Inoue, Tohoku University, Japan. HEK293A cells were grown in Dulbecco’s Modified Eagle Medium (ThermoFisher #31966047) supplemented with 10% dialyzed fetal bovine serum and 100 units/mL Penicillin-Streptomycin. Cell lines were maintained at 37 °C in humidified incubator equilibrated with 5% CO2.
(§2) The G protein dissociation assay developed by the lab of Kirill A. Martemyanov was used to measure the coupling of multiple G proteins by GPR139[57]. The assay was performed as described previously with minor modifications. HEK293A cells were reverse transfected 20–24 h prior to assay. 50,000 cells were plated in each well of white opaque tissue culture treated 96-well plates (PerkinElmer #6005680) previously coated with poly-D-lysine. Transfection solutions were prepared as described, and 10 µL transfection solution was mixed with 100 µL cells in each well. The cells in each well were transfected with 18.9 ng GPR139, 6.3 ng Venus 1-155 Gγ2, 6.3 ng Venus 159-239 Gβ1, 6.3 ng masGRK3ct-NanoLuc and 12.6 ng Gαi2, 12.6 ng Gαi3, 12.6 ng GαoA, 12.6 ng Gαq or 25.2 ng Gα12 using 375 nL Lipofectamine 2000 Transfection Reagent. Transfections with Gαq and Gα12 contained 6.3 ng DNA of the active subunit S1 of pertussis toxin (PTX-S1). Each transfection was normalized to 150 ng total DNA with pcDNA3.1. The BRET biosensors were a kind gift from the Martemyanov lab. On the day of the experiment the cells were washed with HEPES buffer. Test compounds were diluted in HEPES buffer from DMSO stocks (final DMSO concentration of maximally 0.3%). NanoLuc Luciferase substrate NanoGlo—furimazine (Promega #N1120) was diluted 1000-fold (final) in HEPES buffer. NanoGlo and test compounds were added, and measurements were performed after 10 s for Gi3, 15 s for Gi2 and GoA, 20 s for Gq, and 90 s for G12—the timepoint where maximal signal occurred with each G protein, ensuring proper determination of the potency for the G protein coupling. Simultaneous dual emission was measured at 535 nm and 475 nm on LUMIstar Omega Microplate Reader (BMG Labtech) at room temperature. The BRET ratio of 535 nm/475 nm (Venus/NanoLuc), reflecting the dissociation of the G protein heterotrimer, was used to determine the G protein activation. The basal BRET ratio obtained with buffer condition was subtracted from the absolute BRET ratio at a given test compound concentration, and the responses were normalized to the one obtained with 10 µM JNJ-63533054 for the activation of Gi2.
(§3) Pharmacological data and statistical analyses were performed in GraphPad Prism v9–10 (Graphpad Software Inc., San Diego, CA), which are also specifically described in the figure and table legends. […]

GPR139 (G12 activation) = target: T2, GPR139 (G12 activation) (Homo sapiens, UniProt Q6DWJ6); experiment: BRET G protein activation (dissociation) assay, G12, HEK293A; format: cell-based; details: for Emax: HEK293-A, normalized to JNJ-63533054 (JNJ(S)); for EC50: Supplementary Table 6, read-out: pEC50 G12 (converted); for G protein activation, G12: individual replicates
T2 construct: expressed in transfected cells; host or cells: HEK293A (transient, Lipofectamine 2000)
T2 sequence (Q6DWJ6 1-353): T1 sequence (Q6DWJ6 1-353)
Procedure: as §1, §2, §3

[1] = log [compound] M -4.5, listed as JNJ (S)
[2] = log [compound] M -5.0, listed as JNJ (S)
[3] = log [compound] M -5.5, listed as JNJ (S)
[4] = log [compound] M -6.0, listed as JNJ (S)
[5] = log [compound] M -6.5, listed as JNJ (S)
[6] = log [compound] M -7.0, listed as JNJ (S)
[7] = log [compound] M -7.5, listed as JNJ (S)
[8] = log [compound] M -8.0, listed as JNJ (S)

Cc1cscc1-c1nc(CC(=O)N[C@@H](C)c2ccccc2)no1 [1.1(S)]
Emax (GPR139 (Gi3 activation)): 45 ± 3% | EC50 (GPR139 (Gi3 activation)): 0.0501 µM | G protein activation, Gi3 (GPR139 (Gi3 activation); log [compound] M -4.5): 50 % of JNJ-63533054 at Gi2 and 43 % of JNJ-63533054 at Gi2 and 51 % of JNJ-63533054 at Gi2 | G protein activation, Gi3 (GPR139 (Gi3 activation); log [compound] M -5.0): 46 % of JNJ-63533054 at Gi2 and 36 % of JNJ-63533054 at Gi2 and 43 % of JNJ-63533054 at Gi2 | G protein activation, Gi3 (GPR139 (Gi3 activation); log [compound] M -5.5): 46 % of JNJ-63533054 at Gi2 and 40 % of JNJ-63533054 at Gi2 and 43 % of JNJ-63533054 at Gi2 | G protein activation, Gi3 (GPR139 (Gi3 activation); log [compound] M -6.0): 44 % of JNJ-63533054 at Gi2 and 36 % of JNJ-63533054 at Gi2 and 42 % of JNJ-63533054 at Gi2 | G protein activation, Gi3 (GPR139 (Gi3 activation); log [compound] M -6.5): 37 % of JNJ-63533054 at Gi2 (2×) and 36 % of JNJ-63533054 at Gi2 | G protein activation, Gi3 (GPR139 (Gi3 activation); log [compound] M -7.0): 31 % of JNJ-63533054 at Gi2 and 26 % of JNJ-63533054 at Gi2 and 28 % of JNJ-63533054 at Gi2 | G protein activation, Gi3 (GPR139 (Gi3 activation); log [compound] M -7.5): 18 % of JNJ-63533054 at Gi2 and 14 % of JNJ-63533054 at Gi2 and 21 % of JNJ-63533054 at Gi2 | G protein activation, Gi3 (GPR139 (Gi3 activation); log [compound] M -8.0): 11 % of JNJ-63533054 at Gi2 and 5.42 % of JNJ-63533054 at Gi2 and 10 % of JNJ-63533054 at Gi2 | Emax (GPR139 (G12 activation)): 54 ± 3% | EC50 (GPR139 (G12 activation)): 0.0126 µM | G protein activation, G12 (GPR139 (G12 activation); log [compound] M -4.5): 60 % of JNJ-63533054 at Gi2 (2×) and 52 % of JNJ-63533054 at Gi2 | G protein activation, G12 (GPR139 (G12 activation); log [compound] M -5.0): 54 % of JNJ-63533054 at Gi2 and 46 % of JNJ-63533054 at Gi2 and 58 % of JNJ-63533054 at Gi2 | G protein activation, G12 (GPR139 (G12 activation); log [compound] M -5.5): 51 % of JNJ-63533054 at Gi2 and 44 % of JNJ-63533054 at Gi2 and 56 % of JNJ-63533054 at Gi2 | G protein activation, G12 (GPR139 (G12 activation); log [compound] M -6.0): 52 % of JNJ-63533054 at Gi2 and 45 % of JNJ-63533054 at Gi2 and 55 % of JNJ-63533054 at Gi2 | G protein activation, G12 (GPR139 (G12 activation); log [compound] M -6.5): 47 % of JNJ-63533054 at Gi2 and 43 % of JNJ-63533054 at Gi2 and 53 % of JNJ-63533054 at Gi2 | G protein activation, G12 (GPR139 (G12 activation); log [compound] M -7.0): 46 % of JNJ-63533054 at Gi2 and 39 % of JNJ-63533054 at Gi2 and 52 % of JNJ-63533054 at Gi2 | G protein activation, G12 (GPR139 (G12 activation); log [compound] M -7.5): 36 % of JNJ-63533054 at Gi2 and 32 % of JNJ-63533054 at Gi2 and 42 % of JNJ-63533054 at Gi2 | G protein activation, G12 (GPR139 (G12 activation); log [compound] M -8.0): 22 % of JNJ-63533054 at Gi2 and 19 % of JNJ-63533054 at Gi2 and 27 % of JNJ-63533054 at Gi2

CC(NC(=O)CNC(=O)c1cccc(Cl)c1)c1ccccc1 (stereo not shown) [JNJ-63533054, reference compound]
Emax (GPR139 (Gi3 activation)): 56 ± 4% | EC50 (GPR139 (Gi3 activation)): 0.1 µM | G protein activation, Gi3 (GPR139 (Gi3 activation); [1]): 63 % of JNJ-63533054 at Gi2 and 48 % of JNJ-63533054 at Gi2 and 54 % of JNJ-63533054 at Gi2 | G protein activation, Gi3 (GPR139 (Gi3 activation); [2]): 59 % of JNJ-63533054 at Gi2 and 44 % of JNJ-63533054 at Gi2 and 57 % of JNJ-63533054 at Gi2 | G protein activation, Gi3 (GPR139 (Gi3 activation); [3]): 57 % of JNJ-63533054 at Gi2 and 41 % of JNJ-63533054 at Gi2 and 51 % of JNJ-63533054 at Gi2 | G protein activation, Gi3 (GPR139 (Gi3 activation); [4]): 52 % of JNJ-63533054 at Gi2 and 39 % of JNJ-63533054 at Gi2 and 42 % of JNJ-63533054 at Gi2 | G protein activation, Gi3 (GPR139 (Gi3 activation); [5]): 48 % of JNJ-63533054 at Gi2 and 28 % of JNJ-63533054 at Gi2 and 40 % of JNJ-63533054 at Gi2 | G protein activation, Gi3 (GPR139 (Gi3 activation); [6]): 37 % of JNJ-63533054 at Gi2 and 22 % of JNJ-63533054 at Gi2 and 29 % of JNJ-63533054 at Gi2 | G protein activation, Gi3 (GPR139 (Gi3 activation); [7]): 26 % of JNJ-63533054 at Gi2 and 11 % of JNJ-63533054 at Gi2 and 24 % of JNJ-63533054 at Gi2 | G protein activation, Gi3 (GPR139 (Gi3 activation); [8]): 10 % of JNJ-63533054 at Gi2 and 5.6 % of JNJ-63533054 at Gi2 and 14 % of JNJ-63533054 at Gi2 | Emax (GPR139 (G12 activation)): 57 ± 1% | EC50 (GPR139 (G12 activation)): 0.0251 µM | G protein activation, G12 (GPR139 (G12 activation); [1]): 60 % of JNJ-63533054 at Gi2 (2×) and 57 % of JNJ-63533054 at Gi2 | G protein activation, G12 (GPR139 (G12 activation); [2]): 55 % of JNJ-63533054 at Gi2 and 54 % of JNJ-63533054 at Gi2 and 57 % of JNJ-63533054 at Gi2 | G protein activation, G12 (GPR139 (G12 activation); [3]): 53 % of JNJ-63533054 at Gi2 and 55 % of JNJ-63533054 at Gi2 and 54 % of JNJ-63533054 at Gi2 | G protein activation, G12 (GPR139 (G12 activation); [4]): 50 % of JNJ-63533054 at Gi2 and 51 % of JNJ-63533054 at Gi2 and 53 % of JNJ-63533054 at Gi2 | G protein activation, G12 (GPR139 (G12 activation); [5]): 52 % of JNJ-63533054 at Gi2 and 46 % of JNJ-63533054 at Gi2 and 48 % of JNJ-63533054 at Gi2 | G protein activation, G12 (GPR139 (G12 activation); [6]): 47 % of JNJ-63533054 at Gi2 and 42 % of JNJ-63533054 at Gi2 and 38 % of JNJ-63533054 at Gi2 | G protein activation, G12 (GPR139 (G12 activation); [7]): 32 % of JNJ-63533054 at Gi2 and 33 % of JNJ-63533054 at Gi2 and 26 % of JNJ-63533054 at Gi2 | G protein activation, G12 (GPR139 (G12 activation); [8]): 22 % of JNJ-63533054 at Gi2 and 21 % of JNJ-63533054 at Gi2 and 16 % of JNJ-63533054 at Gi2
